Assay [1] has as its system renal epithelial cells. The assay can be described thus: Measurement of GSH content. In kind it is cell-based. The note with it: single treatment of cisplatin 25 μg/ml, 24 hours. How it is done:
Monochlorobimane was employed to determine the GSH levels, and experiments for measuring GSH content were performed using the […] with reference to the conventional method of Fernandez-Checa and Kaplowitz. The number of cells, in which GSH is detectable, was determined by historical data and preliminary experiment, and 2×10^6 cells were seeded to each well of culture plate. After culture for 24 hours, the dilution fold of the final concentration of the drug determined as an active drug was considered and calculated, based on the results of MTT Assay and crystal violet Assay. […] Cells were harvested using 0.25% Trypsin-EDTA, and then centrifuged at 1,200 rpm for 3 minutes. Cold buffer was added to the resulting cell pellet, followed by sonication for 30 seconds. Centrifugation was carried out at 10,000 rpm for 15 minutes, and then the supernatant was collected and used for BCA protein quantification. 1 g/ml of MPA diluted in D.W was added to the supernatant at a volume ratio of 4:1, followed by immediately vortexing. […] End-point fluorescence wavelength at Ex: 360 nm and Em: 460 nm was measured at S=70. Data of the experimental results were analyzed using a Microsoft Excel program, and post-test analysis using Bonferroni multiple comparison test was performed to investigate the differences between the groups. p<0.001 was considered statistically significant.

In assay [2] the test system is p53. The assay can be described thus: Examination of p53 expression pattern (Western blot). As to conditions: single treatment of cisplatin. In kind it is cell-based. The protocol: Cells treated with Elsholtziae Herba extract and/or cisplatin were harvested, and RIPA buffer was added thereto, followed by sonication for cell lysis. Centrifugation was performed at 15,000 rpm for 15 minutes, and the supernatant was obtained, and subjected to protein quantification by BCA assay. The protein was loaded at an amount of 20 μg/10 μl in each well, and 12% SDS-PAGE polyacrylamide gel electrophoresis was performed, and transferred to a nitrocellulose membrane. The membrane was blocked with 5% Skim milk-TBST, and then treated with primary antibody (anti-p53/dilution—1:300). p53 was detected with HRP conjugated anti-mouse IgG (dilution—1:5000) and immune reaction was visualized by ECL. The measurement results are shown as Mean±S.E.M. (standard error of mean) in FIG. 6.
(In western blotting, separated proteins are transferred to a membrane and probed.)

These results are taken from patent publication US9433655B2, “Composition comprising natural substance extract as active ingredient for preventing or treating acute renal failure” (priority 2012, dated 2016).

“Also recorded” adds a separate entry of the source.

`N.N.[Cl][Pt][Cl]` [cisplatin, cis-diaminedichloroplatinum II]: the GSH content result in assay [1] is “reduced GSH content”. For the same compound, in assay [2], the p53 expression level entry was “increased p53 expression; also recorded: remarkably increased”.
